# Measured values: ChEMBL document CHEMBL1201862, “PubChem BioAssay data set” (2004)
#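 A five-concentration, 48-hour dose response in 96-well plates underlies each endpoint, interpolated linearly between surrounding concentrations. GI50 = concentration required for 50% inhibition of growth.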 Activity calls are given as the source filed them. Cut-off read from the data, not from the text of the source: active = GI50 up to about 1.1 µM and inactive = higher.
# Experiments:
# Test in all cases: growth of human tumour cells (NCI), 48 h
# RXF 393 = test system: RXF 393
# MCF7 = test system: MCF7
# T47D = test system: T47D
# KM12 = test system: KM12
# HCT-15 = test system: HCT-15
# SK-MEL-2 = test system: SK-MEL-2
# HOP-62 = test system: HOP-62
# SN12C = test system: SN12C
# NCI-H522 = test system: NCI-H522
# BT-549 = test system: BT-549
# MDA-N = test system: MDA-N
# Malme-3M = test system: Malme-3M
# COLO 205 = test system: COLO 205
# PC-3 = test system: PC-3
# SK-MEL-5 = test system: SK-MEL-5
# MDA-MB-231 = test system: MDA-MB-231
# HOP-92 = test system: HOP-92
# OVCAR-8 = test system: OVCAR-8
# CAKI-1 = test system: CAKI-1
# U-251 = test system: U-251
# OVCAR-5 = test system: OVCAR-5
# SF-295 = test system: SF-295
# HCC 2998 = test system: HCC 2998
# RPMI-8226 = test system: RPMI-8226
# CCRF-CEM = test system: CCRF-CEM
# UO-31 = test system: UO-31
# OVCAR-3 = test system: OVCAR-3
# NCI-H226 = test system: NCI-H226
# NCI-H23 = test system: NCI-H23
# M14 = test system: M14
# SR = test system: SR
# DU-145 = test system: DU-145
# NCI-H460 = test system: NCI-H460
# SK-MEL-28 = test system: SK-MEL-28
# K562 = test system: K562
# OVCAR-4 = test system: OVCAR-4
# IGROV-1 = test system: IGROV-1
# SK-OV-3 = test system: SK-OV-3
# A549 = test system: A549
# SNB-19 = test system: SNB-19
# HL-60 = test system: HL-60
# SNB-75 = test system: SNB-75
# A498 = test system: A498
# Hs-578T = test system: Hs-578T
# SF-539 = test system: SF-539
# NCI/ADR-RES = test system: NCI/ADR-RES
# 786-0 = test system: 786-0
# UACC-62 = test system: UACC-62
# MDA-MB-435 = test system: MDA-MB-435
# MOLT-4 = test system: MOLT-4
# UACC-257 = test system: UACC-257
# SW-620 = test system: SW-620
# TK-10 = test system: TK-10
# LOX IMVI = test system: LOX IMVI
# HT-29 = test system: HT-29
# SF-268 = test system: SF-268
# HCT-116 = test system: HCT-116
# ACHN = test system: ACHN
# EKVX = test system: EKVX
smiles,measurement,setting,value
Cn1c(CCC2(C)Cc3ccccc3C(=O)O2)cc2ccccc2c1=O (centres undefined),GI50,RXF 393,10.2 µM (inactive)
same,GI50,MCF7,24.2 µM (inactive)
same,GI50,T47D,24.3 µM (inactive)
same,GI50,KM12,4.66 µM (inactive)
same,GI50,HCT-15,33.7 µM
same,GI50,SK-MEL-2,24.2 µM (inactive)
same,GI50,HOP-62,18.5 µM (inactive)
same,GI50,SN12C,44 µM (inactive)
same,GI50,NCI-H522,16.4 µM (inactive)
same,GI50,BT-549,21.8 µM (inactive)
same,GI50,MDA-N,22.6 µM (inactive)
same,GI50,Malme-3M,35.2 µM (inactive)
same,GI50,COLO 205,27.1 µM (inactive)
same,GI50,PC-3,17.7 µM (inactive)
same,GI50,SK-MEL-5,17.2 µM (inactive)
same,GI50,MDA-MB-231,45.1 µM (inactive)
same,GI50,HOP-92,57.5 µM (inactive)
same,GI50,OVCAR-8,> 100 µM (inactive)
same,GI50,CAKI-1,13.9 µM (inactive)
same,GI50,U-251,45.5 µM (inactive)
same,GI50,OVCAR-5,32.8 µM (inactive)
same,GI50,SF-295,> 100 µM (inactive)
same,GI50,HCC 2998,34.4 µM (inactive)
same,GI50,RPMI-8226,17.3 µM (inactive)
same,GI50,CCRF-CEM,12.7 µM (inactive)
same,GI50,UO-31,15.7 µM (inactive)
same,GI50,OVCAR-3,21 µM (inactive)
same,GI50,NCI-H226,22 µM (inactive)
same,GI50,NCI-H23,24.7 µM (inactive)
same,GI50,M14,16.4 µM (inactive)
same,GI50,SR,34.4 µM (inactive)
same,GI50,DU-145,23.7 µM (inactive)
same,GI50,NCI-H460,24.8 µM (inactive)
same,GI50,SK-MEL-28,28.8 µM (inactive)
same,GI50,K562,2.96 µM (inactive)
same,GI50,OVCAR-4,36 µM (inactive)
same,GI50,IGROV-1,27.3 µM (inactive)
same,GI50,SK-OV-3,30.5 µM (inactive)
same,GI50,A549,31.2 µM (inactive)
same,GI50,SNB-19,55.6 µM (inactive)
same,GI50,HL-60,27.2 µM (inactive)
same,GI50,SNB-75,22.4 µM (inactive)
same,GI50,A498,25.1 µM (inactive)
same,GI50,Hs-578T,37.7 µM (inactive)
same,GI50,SF-539,43.1 µM (inactive)
same,GI50,NCI/ADR-RES,26.3 µM (inactive)
same,GI50,786-0,96.6 µM (inactive)
same,GI50,UACC-62,> 10 µM (inactive)
same,GI50,MDA-MB-435,19.4 µM (inactive)
same,GI50,MOLT-4,> 10 µM (inactive)
CCc1c(N=[N+]=[N-])c2ccccc2oc1=O,GI50,RXF 393,> 100 µM (inactive)
same,GI50,MCF7,> 100 µM (inactive)
same,GI50,T47D,> 100 µM (inactive)
same,GI50,KM12,> 100 µM (inactive)
same,GI50,HCT-15,> 100 µM
same,GI50,HOP-62,> 100 µM (inactive)
same,GI50,SN12C,> 100 µM (inactive)
same,GI50,NCI-H522,> 100 µM (inactive)
same,GI50,BT-549,> 100 µM (inactive)
same,GI50,MDA-N,> 100 µM (inactive)
same,GI50,Malme-3M,> 100 µM (inactive)
same,GI50,COLO 205,> 100 µM (inactive)
same,GI50,PC-3,> 100 µM (inactive)
same,GI50,MDA-MB-231,> 100 µM (inactive)
same,GI50,HOP-92,> 100 µM (inactive)
same,GI50,OVCAR-8,> 100 µM (inactive)
same,GI50,UACC-257,> 100 µM (inactive)
same,GI50,SW-620,> 100 µM (inactive)
same,GI50,U-251,> 100 µM (inactive)
same,GI50,TK-10,> 100 µM (inactive)
same,GI50,SF-295,> 100 µM (inactive)
same,GI50,HCC 2998,> 100 µM (inactive)
same,GI50,RPMI-8226,> 100 µM (inactive)
same,GI50,CCRF-CEM,> 100 µM (inactive)
same,GI50,UO-31,> 100 µM (inactive)
same,GI50,LOX IMVI,> 100 µM (inactive)
same,GI50,OVCAR-3,> 100 µM (inactive)
same,GI50,NCI-H226,> 100 µM (inactive)
same,GI50,NCI-H23,> 100 µM (inactive)
same,GI50,M14,> 100 µM (inactive)
same,GI50,HT-29,> 100 µM (inactive)
same,GI50,SF-268,> 100 µM (inactive)
same,GI50,SR,> 100 µM (inactive)
same,GI50,DU-145,> 100 µM (inactive)
same,GI50,HCT-116,> 100 µM (inactive)
same,GI50,NCI-H460,> 100 µM (inactive)
same,GI50,SK-MEL-28,> 100 µM (inactive)
same,GI50,K562,> 100 µM (inactive)
same,GI50,OVCAR-4,> 100 µM (inactive)
same,GI50,IGROV-1,49.7 µM (inactive)
same,GI50,SK-OV-3,> 100 µM (inactive)
same,GI50,A549,> 100 µM (inactive)
same,GI50,HL-60,> 100 µM (inactive)
same,GI50,SNB-75,69.3 µM (inactive)
same,GI50,A498,> 100 µM (inactive)
same,GI50,Hs-578T,49.8 µM (inactive)
same,GI50,SF-539,> 100 µM (inactive)
same,GI50,ACHN,> 100 µM (inactive)
same,GI50,NCI/ADR-RES,> 100 µM (inactive)
same,GI50,786-0,> 100 µM (inactive)
same,GI50,UACC-62,> 100 µM (inactive)
same,GI50,MDA-MB-435,> 100 µM (inactive)
same,GI50,EKVX,36.3 µM (inactive)
same,GI50,MOLT-4,> 100 µM (inactive)
